Tests used:
[1] = molecular target: T1, wtEGFR (Homo sapiens, UniProt P00533); assay: HotSpot radiometric kinase activity assay, wtEGFR; conditions: biochemical activity, 4 nM wtEGFR, 10 μM 33P-ATP, 2 hours, read-out: EGFR WT IC50
T1 construct: purchased Invitrogen PR7295B
Protocol: (§1) The purpose of the wtERBB2, ERBB2-A775_G776insYVMA (ERBB2YVMA), wtEGFR biochemical assay was to evaluate the inhibition (% inhibition and IC50 values) of the small molecule inhibitors by using the “HotSpot” radiometric kinase activity assay. HotSpot assays monitor the production of kinase substrate by the radioactive gamma phosphate of adenosine triphosphate (33P-ATP) during biochemical reactions. HotSpot assays was performed in steps upon completion of the kinase reaction: deposition of a reaction mixture aliquot onto P81 ion exchange paper, extensive washing of the aforementioned P81 paper using phosphoric acid to remove unbound radiolabeled 33P-ATP from the P81 paper, and finally visualization and quantification of the dried P81 paper utilizing a phosphoimager. […] Typical reaction solutions (10 μL, final reaction volume) contained the following buffer conditions: 20 mM Hepes (pH 7.5), 10 mM MgCl2, 1 mM EGTA, 0.01% Brij35, 0.02 mg/mL BSA, 0.1 mM Na3VO4, 2 mM DTT, 1% DMSO. The assay was primed by preparing a fresh 0.2 mg/mL solution of pEY (Sigma Cat: P7244) substrate in the reaction buffer and supplementing that solution with […] of MnCl2 as substrate cofactor (Sigma Cat: M9522). The kinase of interest was then added to the solution at the appropriate concentration (30 nM wtERBB2 from, or 20 nM ERBB2YVMA, or 4 nM wtEGFR) and gently mixed prior to delivery of compound in 100% DMSO by acoustic dispensing (Beckman Echo550). Compound, Kinase, and substrate were allowed to incubate for 20 min at room temperature prior to the initiation of the reaction by addition of 33P-ATP (PerkinElmer Cat: NEG602, final conc 10 μM). […] IC50 determinations were made from a plot of kinase activity as a function of inhibitor concentration fit to the 4-parameter IC50 equation with the enzyme concentration held constant using GraphPad Prism (San Diego).

[2] = molecular target: BaF3_HER2WT cells (Homo sapiens, UniProt P04626); assay: Cell growth inhibition assay (CellTiterGlo), BaF3_HER2WT; type: cell-based; conditions: 3-day treatment, CellTiterGlo, read-out: Cell growth inhibition activity, HER2 WT
[3] = molecular target: T2, ERBB2-A775_G776insYVMA (ERBB2YVMA) (Homo sapiens, UniProt P04626, INS775YVMA); assay: HotSpot radiometric kinase activity assay, ERBB2YVMA; conditions: biochemical activity, 20 nM ERBB2YVMA, 10 μM 33P-ATP, 2 hours, read-out: HER2 - YVMA IC50
T2 construct: purchased SignalChem E27-13BG
T2 sequence (P04626 with tags, fused parts or gaps INS775YVMA limits assumed): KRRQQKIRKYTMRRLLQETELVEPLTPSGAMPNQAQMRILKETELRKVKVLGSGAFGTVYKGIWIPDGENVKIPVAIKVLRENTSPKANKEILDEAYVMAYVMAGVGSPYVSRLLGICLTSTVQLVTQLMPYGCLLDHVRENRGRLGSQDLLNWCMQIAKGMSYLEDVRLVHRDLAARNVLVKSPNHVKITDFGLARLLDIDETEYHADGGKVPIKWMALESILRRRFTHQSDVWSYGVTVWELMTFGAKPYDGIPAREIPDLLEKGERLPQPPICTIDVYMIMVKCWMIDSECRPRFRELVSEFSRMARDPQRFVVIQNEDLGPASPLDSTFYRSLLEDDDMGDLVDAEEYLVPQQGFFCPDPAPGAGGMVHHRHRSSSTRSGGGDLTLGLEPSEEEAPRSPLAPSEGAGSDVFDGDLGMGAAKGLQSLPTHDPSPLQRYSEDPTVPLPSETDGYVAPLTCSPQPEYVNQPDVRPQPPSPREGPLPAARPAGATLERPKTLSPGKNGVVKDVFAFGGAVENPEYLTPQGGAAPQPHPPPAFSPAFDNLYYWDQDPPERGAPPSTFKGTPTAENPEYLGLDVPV
Protocol: as §1

[4] = molecular target: BaF3_HER2YVMA cells (Homo sapiens, UniProt P04626, DUP772-775, cells depend on it); assay: Cell growth inhibition assay (CellTiterGlo), BaF3_HER2YVMA; type: cell-based; conditions: 3-day treatment, CellTiterGlo, read-out: Cell growth inhibition activity, HER2 - YVMA
BaF3_HER2YVMA cells, sequence (P04626 with tags, fused parts or gaps DUP772-775): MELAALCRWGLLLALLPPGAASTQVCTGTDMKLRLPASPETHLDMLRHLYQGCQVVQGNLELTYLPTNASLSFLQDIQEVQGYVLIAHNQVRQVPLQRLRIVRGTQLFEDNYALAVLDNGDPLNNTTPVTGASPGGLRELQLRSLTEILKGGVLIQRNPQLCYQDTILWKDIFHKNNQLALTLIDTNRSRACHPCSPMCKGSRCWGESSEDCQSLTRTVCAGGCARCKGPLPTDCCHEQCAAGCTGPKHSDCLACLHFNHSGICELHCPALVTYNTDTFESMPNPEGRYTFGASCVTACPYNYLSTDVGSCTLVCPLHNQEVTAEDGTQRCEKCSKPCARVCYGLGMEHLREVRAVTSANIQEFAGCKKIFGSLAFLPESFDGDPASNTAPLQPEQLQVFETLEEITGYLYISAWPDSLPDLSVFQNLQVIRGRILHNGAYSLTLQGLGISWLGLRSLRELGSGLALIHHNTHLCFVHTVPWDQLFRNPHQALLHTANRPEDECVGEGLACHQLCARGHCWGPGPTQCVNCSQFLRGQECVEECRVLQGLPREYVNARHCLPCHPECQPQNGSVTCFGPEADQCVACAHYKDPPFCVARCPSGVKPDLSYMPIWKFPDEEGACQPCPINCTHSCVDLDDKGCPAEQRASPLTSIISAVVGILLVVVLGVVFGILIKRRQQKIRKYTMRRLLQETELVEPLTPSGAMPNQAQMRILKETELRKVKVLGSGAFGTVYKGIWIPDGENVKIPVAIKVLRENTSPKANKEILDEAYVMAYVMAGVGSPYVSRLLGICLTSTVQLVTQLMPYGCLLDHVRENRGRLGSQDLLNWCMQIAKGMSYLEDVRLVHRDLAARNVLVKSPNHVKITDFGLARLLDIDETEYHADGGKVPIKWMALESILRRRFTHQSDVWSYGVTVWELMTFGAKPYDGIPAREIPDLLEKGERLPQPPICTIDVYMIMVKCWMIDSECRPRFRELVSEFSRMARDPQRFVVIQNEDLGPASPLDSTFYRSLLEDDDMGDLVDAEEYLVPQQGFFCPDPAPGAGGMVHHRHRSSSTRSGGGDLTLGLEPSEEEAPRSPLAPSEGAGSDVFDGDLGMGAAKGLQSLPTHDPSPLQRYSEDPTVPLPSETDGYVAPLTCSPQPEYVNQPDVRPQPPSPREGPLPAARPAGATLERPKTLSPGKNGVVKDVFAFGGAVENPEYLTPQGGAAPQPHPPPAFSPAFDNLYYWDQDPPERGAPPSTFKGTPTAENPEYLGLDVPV

[5] = molecular target: BaF3_EGFRWT cells (Homo sapiens, UniProt P00533); assay: Cell growth inhibition assay (CellTiterGlo), BaF3_EGFRWT; type: cell-based; conditions: 3-day treatment, CellTiterGlo, read-out: Cell growth inhibition activity, EGFR WT
BaF3_EGFRWT cells, sequence (P00533 whole entry, change not shown): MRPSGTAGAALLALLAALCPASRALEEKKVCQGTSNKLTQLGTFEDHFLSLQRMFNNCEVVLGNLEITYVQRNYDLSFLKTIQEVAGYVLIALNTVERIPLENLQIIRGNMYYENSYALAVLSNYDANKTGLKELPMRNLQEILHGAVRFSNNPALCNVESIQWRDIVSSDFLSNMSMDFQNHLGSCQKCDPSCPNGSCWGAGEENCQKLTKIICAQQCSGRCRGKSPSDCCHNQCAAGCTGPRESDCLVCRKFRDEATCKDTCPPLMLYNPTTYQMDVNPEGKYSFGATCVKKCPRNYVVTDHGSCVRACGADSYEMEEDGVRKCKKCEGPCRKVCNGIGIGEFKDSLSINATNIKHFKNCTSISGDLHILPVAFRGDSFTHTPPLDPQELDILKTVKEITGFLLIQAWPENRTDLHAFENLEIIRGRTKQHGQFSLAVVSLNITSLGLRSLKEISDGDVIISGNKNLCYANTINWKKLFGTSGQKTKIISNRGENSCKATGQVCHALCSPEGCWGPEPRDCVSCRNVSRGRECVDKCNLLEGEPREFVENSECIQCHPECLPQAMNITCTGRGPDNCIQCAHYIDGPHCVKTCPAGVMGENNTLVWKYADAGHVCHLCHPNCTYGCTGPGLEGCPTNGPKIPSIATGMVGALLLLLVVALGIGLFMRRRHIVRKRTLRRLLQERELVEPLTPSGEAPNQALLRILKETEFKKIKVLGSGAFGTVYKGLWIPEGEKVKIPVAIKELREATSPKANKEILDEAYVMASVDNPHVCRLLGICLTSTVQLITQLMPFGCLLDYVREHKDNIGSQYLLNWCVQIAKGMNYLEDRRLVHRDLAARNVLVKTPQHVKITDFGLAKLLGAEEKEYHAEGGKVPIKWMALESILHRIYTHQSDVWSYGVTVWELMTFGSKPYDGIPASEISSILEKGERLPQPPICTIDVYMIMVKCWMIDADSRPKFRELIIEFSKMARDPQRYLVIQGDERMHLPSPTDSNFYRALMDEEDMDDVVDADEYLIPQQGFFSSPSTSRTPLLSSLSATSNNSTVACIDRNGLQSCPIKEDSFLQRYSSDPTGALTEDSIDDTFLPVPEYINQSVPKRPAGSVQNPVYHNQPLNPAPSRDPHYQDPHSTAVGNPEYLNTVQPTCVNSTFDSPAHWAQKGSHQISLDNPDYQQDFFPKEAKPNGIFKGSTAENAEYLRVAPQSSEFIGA

T1 sequence (P00533 25-1210): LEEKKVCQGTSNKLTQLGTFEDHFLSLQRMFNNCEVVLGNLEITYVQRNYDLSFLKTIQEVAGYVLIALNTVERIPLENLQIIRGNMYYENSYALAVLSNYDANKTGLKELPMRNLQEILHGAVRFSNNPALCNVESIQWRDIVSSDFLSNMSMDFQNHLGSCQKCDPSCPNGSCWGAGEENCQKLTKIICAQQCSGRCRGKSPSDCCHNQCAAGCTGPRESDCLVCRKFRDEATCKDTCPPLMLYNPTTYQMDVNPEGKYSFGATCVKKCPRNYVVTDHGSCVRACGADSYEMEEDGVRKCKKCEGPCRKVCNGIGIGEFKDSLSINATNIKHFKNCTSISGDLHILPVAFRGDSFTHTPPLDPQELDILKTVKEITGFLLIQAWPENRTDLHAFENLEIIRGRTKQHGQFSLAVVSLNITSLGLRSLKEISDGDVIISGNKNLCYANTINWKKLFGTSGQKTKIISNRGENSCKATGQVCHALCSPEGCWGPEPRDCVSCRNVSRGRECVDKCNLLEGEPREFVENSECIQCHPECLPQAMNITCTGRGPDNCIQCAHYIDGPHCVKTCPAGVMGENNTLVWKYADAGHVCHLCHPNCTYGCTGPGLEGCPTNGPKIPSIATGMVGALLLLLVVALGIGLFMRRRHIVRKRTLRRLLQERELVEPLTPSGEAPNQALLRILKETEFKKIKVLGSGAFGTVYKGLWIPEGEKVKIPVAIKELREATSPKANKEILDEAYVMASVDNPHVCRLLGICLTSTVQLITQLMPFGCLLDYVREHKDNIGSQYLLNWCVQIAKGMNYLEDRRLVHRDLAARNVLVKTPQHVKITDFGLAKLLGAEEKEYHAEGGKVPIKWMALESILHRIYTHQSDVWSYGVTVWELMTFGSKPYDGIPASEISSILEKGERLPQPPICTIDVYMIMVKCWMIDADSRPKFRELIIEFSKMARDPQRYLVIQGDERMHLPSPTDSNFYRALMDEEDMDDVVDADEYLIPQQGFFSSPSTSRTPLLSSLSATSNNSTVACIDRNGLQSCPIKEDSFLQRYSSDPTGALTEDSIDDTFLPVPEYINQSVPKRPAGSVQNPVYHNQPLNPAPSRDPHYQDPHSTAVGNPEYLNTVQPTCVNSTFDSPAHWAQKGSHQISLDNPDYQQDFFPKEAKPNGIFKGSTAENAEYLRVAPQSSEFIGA

Compound	IC50 [1] [nM]	GI50 [2] [nM]	IC50 [3] [nM]	GI50 [4] [nM]	GI50 [5] [nM]
Cc1cc(Nc2ncnn3ccc(C4CCN(C(=O)/C=C/CN(C)C)C4)c23)ccc1Oc1ccn2ncnc2c1 (single isomer, unassigned) [Example 100]	1500 to 5000	–	–	–	–
Cc1cc(Nc2ncnn3ccc(C4CCCN(C(=O)/C=C/CN(C)C)C4)c23)ccc1Oc1ccn2ncnc2c1 (single isomer, unassigned) [Example 107]	500 to 1500	–	–	–	–
Cc1cc(Nc2ncnn3ccc(C4CCCN(C(=O)/C=C/CN(C)C)C4)c23)ccc1Oc1ccn2ncnc2c1 (single isomer, unassigned) [Example 108]	1500 to 5000	–	–	–	–
Cc1cc(Nc2ncnn3ccc(C4CCCN(C(=O)/C=C/CN(C)C)CC4)c23)ccc1Oc1ccn2ncnc2c1 (single isomer, unassigned) [Example 110]	200 to 500	–	–	–	–
Cc1cc(Nc2ncnn3ccc(C4CN(C(=O)/C=C/CN(C)C)C4)c23)ccc1Oc1ccn2ncnc2c1 [Example 1, (E)-1-(3-(4-((4-([1,2,4]triazolo[1,5-a]pyridin-7-yloxy)-3-methylphenyl)amino)pyrrolo[2,1-f][1,2,4]triazin-5-yl)azetidin-1-yl)-4-(dimethylamino)but-2-en-1-one]	–	< 200	< 200	< 200	1500 to 5000
C=CC(=O)N1CC(n2cc(-c3ccn4ncnc(Nc5ccc(Oc6ccn7ncnc7c6)c(C)c5)c34)cn2)C1 [Example 2, 1-(3-(4-(4-((4-([1,2,4]triazolo[1,5-a]pyridin-7-yloxy)-3-methylphenyl)amino)pyrrolo[2,1-f][1,2,4]triazin-5-yl)-1H-pyrazol-1-yl)azetidin-1-yl)prop-2-en-1-one]	–	< 200	< 200	< 200	1500 to 5000
C=CC(=O)N1CCN(c2ccn3ncnc(Nc4ccc(Oc5ccn6ncnc6c5)c(C)c4)c23)CC1 [Example 6, 1-(4-(4-((4-([1,2,4]triazolo[1,5-a]pyridin-7-yloxy)-3-methylphenyl)amino)pyrrolo[2,1-f][1,2,4]triazin-5-yl)piperazin-1-yl)prop-2-en-1-one]	–	< 200	< 200	< 200	500 to 1500
C=CC(=O)N1CCC(c2ccn3ncnc(Nc4ccc(Oc5ccn6ncnc6c5)c(C)c4)c23)CC1 [Example 7, 1-(4-(4-((4-([1,2,4]triazolo[1,5-a]pyridin-7-yloxy)-3-methylphenyl)amino)pyrrolo[2,1-f][1,2,4]triazin-5-yl)piperidin-1-yl)prop-2-en-1-one]	–	< 200	< 200	< 200	200 to 500
C=CC(=O)N1CCCN(c2ccn3ncnc(Nc4ccc(Oc5ccn6ncnc6c5)c(C)c4)c23)CC1 [Example 8, 1-(4-(4-((4-([1,2,4]triazolo[1,5-a]pyridin-7-yloxy)-3-methylphenyl)amino)pyrrolo[2,1-f][1,2,4]triazin-5-yl)-1,4-diazepan-1-yl)prop-2-en-1-one]	–	< 200	< 200	< 200	500 to 1500
C=CC(=O)N1CC(c2ccn(-c3ccn4ncnc(Nc5ccc(Oc6ccn7ncnc7c6)c(C)c5)c34)n2)C1 [Example 10, 1-(3-(1-(4-((4-([1,2,4]triazolo[1,5-a]pyridin-7-yloxy)-3-methylphenyl)amino)pyrrolo[2,1-f][1,2,4]triazin-5-yl)-1H-pyrazol-3-yl)azetidin-1-yl)prop-2-en-1-one]	–	200 to 500	< 200	500 to 1500	1500 to 5000
C=CC(=O)N1CCCC(c2ccn3ncnc(Nc4ccc(Oc5ccn6ncnc6c5)c(C)c4)c23)C1 (stereo not shown) [Example 12, 1-(3-(4-((4-([1,2,4]triazolo[1,5-a]pyridin-7-yloxy)-3-methylphenyl)amino)pyrrolo[2,1-f][1,2,4]triazin-5-yl)piperidin-1-yl)prop-2-en-1-one]	–	< 200	< 200	< 200	1500 to 5000
Cc1cc(Nc2ncnn3ccc(C4CN(C(=O)/C=C/CN5CCCCC5)C4)c23)ccc1Oc1ccn2ncnc2c1 [Example 94, (E)-1-(3-(4-((4-([1,2,4]triazolo[1,5-a]pyridin-7-yloxy)-3-methylphenyl)amino)pyrrolo[2,1-f][1,2,4]triazin-5-yl)azetidin-1-yl)-4-(piperidin-1-yl)but-2-en-1-one]	–	< 200	< 200	< 200	1500 to 5000
Cc1cc(Nc2ncnn3ccc(C4CN(C(=O)/C=C/CN5CCCC5)C4)c23)ccc1Oc1ccn2ncnc2c1 [Example 97, (E)-1-(3-(4-((4-([1,2,4]triazolo[1,5-a]pyridin-7-yloxy)-3-methylphenyl)amino)pyrrolo[2,1-f][1,2,4]triazin-5-yl)azetidin-1-yl)-4-(pyrrolidin-1-yl)but-2-en-1-one]	–	< 200	< 200	< 200	1500 to 5000
Cc1cc(Nc2ncnn3ccc(C4CCN(C(=O)/C=C/CN(C)C)C4)c23)ccc1Oc1ccn2ncnc2c1 (stereo not shown) [Example 98, (E)-1-(3-(4-((4-([1,2,4]triazolo[1,5-a]pyridin-7-yloxy)-3-methylphenyl)amino)-pyrrolo-[2,1-f][1,2,4]triazin-5-yl)pyrrolidin-1-yl)-4-(dimethylamino)but-2-en-1-one]	–	< 200	< 200	200 to 500	1500 to 5000
Cc1cc(Nc2ncnn3ccc(C4CN(C(=O)/C=C/CN(C)C)C4)c23)ccc1Oc1ccc2c(c1)ncn2C [Example 101, (E)-4-(dimethylamino)-1-(3-(4-((3-methyl-4-((1-methyl-1H-benzo[d]imidazol-5-yl)oxy)phenyl)amino)pyrrolo[2,1-f][1,2,4]triazin-5-yl)azetidin-1-yl)but-2-en-1-one]	–	< 200	< 200	< 200	1500 to 5000
C=CC(=O)N1CCC(c2ccn3ncnc(Nc4ccc(Oc5ccc6c(c5)ncn6C)c(C)c4)c23)CC1 [Example 113, 1-(4-(4-((3-methyl-4-((1-methyl-1H-benzo[d]imidazol-5-yl)oxy)phenyl)amino)pyrrolo[2,1-f][1,2,4]triazin-5-yl)piperidin-1-yl)prop-2-en-1-one]	–	< 200	< 200	< 200	500 to 1500
Cc1cc(Nc2ncnn3ccc(C4CCN(C(=O)/C=C/CN(C)C)CC4(F)F)c23)ccc1Oc1ccn2ncnc2c1 (stereo not shown) [Example 176, (E)-1-(4-(4-((4-([1,2,4]triazolo[1,5-a]pyridin-7-yloxy)-3-methylphenyl)amino)pyrrolo[2,1-f][1,2,4]triazin-5-yl)-3,3-difluoropiperidin-1-yl)-4-(dimethylamino)but-2-en-1-one]	–	< 200	–	< 200	1500 to 5000
CNC/C=C/C(=O)N1CCC(c2ccn3ncnc(Nc4ccc(Oc5ccn6ncnc6c5)c(C)c4)c23)CC1 [Example 177, (E)-1-(4-(4-((4-([1,2,4]triazolo[1,5-a]pyridin-7-yloxy)-3-methylphenyl)amino)pyrrolo[2,1-f][1,2,4]triazin-5-yl)piperidin-1-yl)-4-(methylamino)but-2-en-1-one]	–	< 200	–	< 200	1500 to 5000
Cc1cc(Nc2ncnn3ccc(C(=O)NCCCN(C)C)c23)ccc1N [Example 181, 4-((4-amino-3-methylphenyl)amino)-N-(3-(dimethylamino)propyl)pyrrolo[2,1-f][1,2,4]triazine-5-carboxamide]	–	1500 to 5000	–	> 5000	> 5000

— US20240132521A1, “COMPOUNDS AND METHODS FOR MODULATING HER2” (Iambic Therapeutics, Inc., priority 2022, published 2024)
